“And” between values parts separate entries of the source, which are not always exact repeats. Identical values can stand only once. Inconclusive results and toxic doses are left out. The calls were made as follows: active = survival T/C of 150% or more; inactive = T/C below 125% in these data.
System: CD2F1 mice, L1210 leukemia ip, survival T/C
Assay: NCI In Vivo Anticancer Drug Screen. Data for tumor model L1210 Leukemia (intraperitoneal) in CD2F1 (CDF1) mice
Details: higher = longer survival
Procedure, shortened: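 Ratio T/C, where T is the treated-group value and C the vehicle-dosed control value, from mice implanted with a transplantable tumor.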

[1] = endpoint: mean survival time, dose: 100.0 mg/kg/injection, schedule: Q04DX002 (ip), vehicle: saline with Tween-80
[2] = endpoint: mean survival time, dose: 200.0 mg/kg/injection, schedule: Q04DX002 (ip), vehicle: saline with Tween-80
[3] = endpoint: mean survival time, dose: 400.0 mg/kg/injection, schedule: Q04DX002 (ip), vehicle: saline with Tween-80
[4] = endpoint: mean survival time, dose: 12.5 mg/kg/injection, schedule: Q01DX009 (ip), vehicle: saline with Tween-80
[5] = endpoint: mean survival time, dose: 100.0 mg/kg/injection, schedule: Q01DX001 (ip), vehicle: saline with Tween-80
[6] = endpoint: mean survival time, dose: 200.0 mg/kg/injection, schedule: Q01DX001 (ip), vehicle: saline with Tween-80
[7] = endpoint: mean survival time, dose: 100.0 mg/kg/injection, schedule: Q04DX003 (ip), vehicle: saline with Tween-80
[8] = endpoint: mean survival time, dose: 200.0 mg/kg/injection, schedule: Q04DX003 (ip), vehicle: saline with Tween-80
[9] = endpoint: mean survival time, dose: 400.0 mg/kg/injection, schedule: Q04DX003 (ip), vehicle: saline with Tween-80
[10] = endpoint: mean survival time, dose: 100.0 mg/kg/injection, schedule: Q01DX009 (ip), vehicle: saline with Tween-80
[11] = endpoint: mean survival time, dose: 200.0 mg/kg/injection, schedule: Q01DX009 (ip), vehicle: saline with Tween-80
[12] = endpoint: mean survival time, dose: 400.0 mg/kg/injection, schedule: Q01DX009 (ip), vehicle: saline with Tween-80
[13] = endpoint: mean survival time, dose: 100.0 mg/kg/injection, schedule: Q01DX009 (ip), vehicle: saline
[14] = endpoint: mean survival time, dose: 50.0 mg/kg/injection, schedule: Q01DX009 (ip), vehicle: saline with Tween-80
[15] = endpoint: mean survival time, dose: 25.0 mg/kg/injection, schedule: Q01DX009 (ip), vehicle: saline with Tween-80
[16] = endpoint: mean survival time, dose: 50.0 mg/kg/injection, schedule: Q04DX003 (ip), vehicle: saline
[17] = endpoint: mean survival time, dose: 100.0 mg/kg/injection, schedule: Q04DX003 (ip), vehicle: saline

Measured: T/C

O=C(CCN1CC1)Nc1cccc(NC(=O)CCN2CC2)c1
inactive: endpoint: mean survival time, dose: 2.5 mg/kg/injection, schedule: Q01DX009 (ip), vehicle: Klucel (hydroxypropylcellulose) (HPC) 118 % of control | endpoint: mean survival time, dose: 4.0 mg/kg/injection, schedule: Q01DX009 (ip), vehicle: Klucel (hydroxypropylcellulose) (HPC) 112 % of control | endpoint: mean survival time, dose: 15.0 mg/kg/injection, schedule: Q01DX009 (ip), vehicle: Klucel (hydroxypropylcellulose) (HPC) 108 % of control | endpoint: mean survival time, dose: 20.0 mg/kg/injection, schedule: Q01DX009 (ip), vehicle: Klucel (hydroxypropylcellulose) (HPC) 96 % of control and 104 % of control
active: endpoint: mean survival time, dose: 10.0 mg/kg/injection, schedule: Q01DX009 (ip), vehicle: Klucel (hydroxypropylcellulose) (HPC) 156 % of control and 165 % of control

COc1ccc(OC)c(C=C(C(C)=O)C(C)=O)c1
inactive: endpoint: mean survival time, dose: 12.5 mg/kg/injection, schedule: Q01DX009 (ip), vehicle: water 95 % of control | endpoint: mean survival time, dose: 25.0 mg/kg/injection, schedule: Q01DX009 (ip), vehicle: water 102 % of control | endpoint: mean survival time, dose: 50.0 mg/kg/injection, schedule: Q01DX009 (ip), vehicle: water 100 % of control | endpoint: mean survival time, dose: 100.0 mg/kg/injection, schedule: Q01DX009 (ip), vehicle: water 95 % of control | endpoint: mean survival time, dose: 200.0 mg/kg/injection, schedule: Q01DX009 (ip), vehicle: water 88 % of control

c1ccc(Oc2ccc(Nc3c4ccccc4nc4ccccc34)cc2)cc1
inactive: [1] 101 % of control | [2] 101 % of control | [3] 104 % of control

c1ccc(-c2ccc(C3=NC(c4ccccc4)N4C3C4c3ccccc3)cc2)cc1 (centres undefined)
inactive: endpoint: mean survival time, dose: 6.25 mg/kg/injection, schedule: Q01DX001 (ip), vehicle: saline with Tween-80 103 % of control | endpoint: mean survival time, dose: 6.25 mg/kg/injection, schedule: Q01DX009 (ip), vehicle: saline with Tween-80 91 % of control | endpoint: mean survival time, dose: 12.5 mg/kg/injection, schedule: Q01DX001 (ip), vehicle: saline with Tween-80 86 % of control | [4] 94 % of control | endpoint: mean survival time, dose: 25.0 mg/kg/injection, schedule: Q01DX001 (ip), vehicle: saline with Tween-80 92 % of control

Cn1c[n+](C)c2ncncc21
inactive: endpoint: mean survival time, dose: 3.8 mg/kg/injection, schedule: Q01DX005 (ip), vehicle: water 102 % of control | endpoint: mean survival time, dose: 7.5 mg/kg/injection, schedule: Q01DX005 (ip), vehicle: water 102 % of control | endpoint: mean survival time, dose: 15.0 mg/kg/injection, schedule: Q01DX005 (ip), vehicle: water 117 % of control | endpoint: mean survival time, dose: 30.0 mg/kg/injection, schedule: Q01DX005 (ip), vehicle: water 98 % of control | endpoint: mean survival time, dose: 60.0 mg/kg/injection, schedule: Q01DX005 (ip), vehicle: water 95 % of control

O=C(O)c1c(F)c(F)c(-c2c(F)c(F)c(C(=O)O)c(C(=O)O)c2F)c(F)c1C(=O)O
inactive: [5] 95 % of control | [6] 96 % of control

CN(C)S(=O)(=O)CC(O)(c1ccccc1)c1ccccc1
inactive: [7] 103 % of control | [8] 103 % of control | [9] 110 % of control

COc1ccc(OC)c(NC(=O)Oc2ccc(-c3ccccc3)cc2Cl)c1
inactive: [10] 105 % of control | [11] 102 % of control | [12] 106 % of control

CC(=O)NCC(O)C(O)C(O)C(O)CO (centres undefined)
inactive: [13] 96 % of control | endpoint: mean survival time, dose: 200.0 mg/kg/injection, schedule: Q01DX009 (ip), vehicle: saline 98 % of control | endpoint: mean survival time, dose: 400.0 mg/kg/injection, schedule: Q01DX009 (ip), vehicle: saline 110 % of control

CCOC(=O)c1c2c(n3ccccc13)C(=O)c1ccccc1C2=O
inactive: endpoint: mean survival time, dose: 75.0 mg/kg/injection, schedule: Q01DX001 (ip), vehicle: saline 97 % of control | endpoint: mean survival time, dose: 150.0 mg/kg/injection, schedule: Q01DX001 (ip), vehicle: saline 103 % of control | endpoint: mean survival time, dose: 300.0 mg/kg/injection, schedule: Q01DX001 (ip), vehicle: saline 105 % of control

Cc1ccc(C(=O)C(F)(F)F)cc1
inactive: [5] 104 % of control | [6] 101 % of control | endpoint: mean survival time, dose: 400.0 mg/kg/injection, schedule: Q01DX001 (ip), vehicle: saline with Tween-80 96 % of control

O=C(COc1ccc(Cl)cc1Cl)Nc1cccc(Cl)c1
inactive: [1] 101 % of control | [2] 101 % of control | [3] 93 % of control

O=C1OC(=O)C2C1C1CCC2C1(c1ccccc1)c1ccccc1 (centres undefined)
inactive: [7] 97 % of control | [8] 97 % of control | [9] 97 % of control

CC(C)N1CCC1C(=O)O (centres undefined)
inactive: endpoint: mean survival time, dose: 100.0 mg/kg/injection, schedule: Q01DX009 (ip), vehicle: saline sonified 97 % of control | endpoint: mean survival time, dose: 200.0 mg/kg/injection, schedule: Q01DX009 (ip), vehicle: saline sonified 105 % of control | endpoint: mean survival time, dose: 400.0 mg/kg/injection, schedule: Q01DX009 (ip), vehicle: saline sonified 97 % of control

O=C(O)C1C(C(=O)O)C(C(=O)O)C1C(=O)O (centres undefined)
inactive: [14] 109 % of control | [10] 95 % of control | [11] 108 % of control

O=C1C(Br)CCC1C(O)(C(F)(F)F)C(F)(F)F (centres undefined)
inactive: [14] 98 % of control | [10] 102 % of control | [7] 92 % of control | [11] 104 % of control | [8] 91 % of control

CC(=O)Nc1ccc2ccccc2c1
inactive: [7] 103 % of control | [8] 93 % of control | [9] 104 % of control

CCN(CC)CC(=O)Nc1cccc2c1C(=O)c1c(c(O)c3ccccc3c1O)C2=O
inactive: endpoint: mean survival time, dose: 6.0 mg/kg/injection, schedule: Q04DX003 (ip), vehicle: saline with Tween-80 94 % of control | endpoint: mean survival time, dose: 12.0 mg/kg/injection, schedule: Q04DX003 (ip), vehicle: saline with Tween-80 100 % of control | endpoint: mean survival time, dose: 24.0 mg/kg/injection, schedule: Q04DX003 (ip), vehicle: saline with Tween-80 96 % of control | endpoint: mean survival time, dose: 48.0 mg/kg/injection, schedule: Q04DX003 (ip), vehicle: saline with Tween-80 98 % of control

c1cc2c(c(NC3=NCCN3)c1)CCCC2
inactive: [4] 96 % of control | [15] 100 % of control | [14] 111 % of control

O=C(CC(O)(C(F)(F)F)C(F)(F)F)c1ccccc1Cl
inactive: [10] 100 % of control | [11] 115 % of control | [12] 107 % of control

CC(C)NC(=S)S
inactive: endpoint: mean survival time, dose: 25.0 mg/kg/injection, schedule: Q01DX009 (ip), vehicle: saline 100 % of control | endpoint: mean survival time, dose: 25.0 mg/kg/injection, schedule: Q04DX003 (ip), vehicle: saline 100 % of control | endpoint: mean survival time, dose: 50.0 mg/kg/injection, schedule: Q01DX009 (ip), vehicle: saline 94 % of control | [16] 105 % of control | [13] 109 % of control | [17] 103 % of control

CCOC1(CC)CN(Cc2ccccc2)CCO1 (centres undefined)
inactive: [7] 100 % of control | [8] 100 % of control | [9] 97 % of control

CC(=O)N(C)N(Cc1ccc(C#N)cc1)C(C)=O
inactive: endpoint: mean survival time, dose: 25.0 mg/kg/injection, schedule: Q01DX009 (ip), vehicle: Klucel (hydroxypropylcellulose) (HPC) 97 % of control | endpoint: mean survival time, dose: 50.0 mg/kg/injection, schedule: Q01DX009 (ip), vehicle: Klucel (hydroxypropylcellulose) (HPC) 93 % of control | endpoint: mean survival time, dose: 100.0 mg/kg/injection, schedule: Q01DX009 (ip), vehicle: Klucel (hydroxypropylcellulose) (HPC) 97 % of control | endpoint: mean survival time, dose: 200.0 mg/kg/injection, schedule: Q01DX009 (ip), vehicle: Klucel (hydroxypropylcellulose) (HPC) 97 % of control | endpoint: mean survival time, dose: 400.0 mg/kg/injection, schedule: Q01DX009 (ip), vehicle: Klucel (hydroxypropylcellulose) (HPC) 98 % of control

COc1cc(Cl)ccc1C
inactive: [4] 97 % of control | [15] 97 % of control | [14] 95 % of control | [10] 100 % of control | [11] 91 % of control

COP(=O)(OC)OCC1OC(n2ccc(N)nc2=O)C(O)C1O (centres undefined)
inactive: endpoint: median survival time, dose: 12.5 mg/kg/injection, schedule: Q01DX005 (ip), vehicle: saline 111 % of control | endpoint: median survival time, dose: 25.0 mg/kg/injection, schedule: Q01DX005 (ip), vehicle: saline 104 % of control | endpoint: median survival time, dose: 50.0 mg/kg/injection, schedule: Q01DX005 (ip), vehicle: saline 110 % of control | endpoint: median survival time, dose: 100.0 mg/kg/injection, schedule: Q01DX005 (ip), vehicle: saline 115 % of control and 108 % of control | endpoint: median survival time, dose: 200.0 mg/kg/injection, schedule: Q01DX005 (ip), vehicle: saline 113 % of control

O=C(CCl)Cc1ccccc1
inactive: [16] 98 % of control | endpoint: mean survival time, dose: 100.0 mg/kg/injection, schedule: Q01DX001 (ip), vehicle: saline 104 % of control | [17] 92 % of control | endpoint: mean survival time, dose: 200.0 mg/kg/injection, schedule: Q01DX001 (ip), vehicle: saline 103 % of control | endpoint: mean survival time, dose: 200.0 mg/kg/injection, schedule: Q04DX003 (ip), vehicle: saline 101 % of control

Source: PubChem BioAssay AID256 (DTP/NCI, 2004)
